Experimental data published in ChEMBL document CHEMBL6096710, “Re-evaluation of Cyclic Peptide Binding to Neurotensin Receptor 1 by Shifting the Peptide Register during Synthesis” (ACS Med Chem Lett, 2025).
Blank lines part the entries; values can stand above or below the compound they belong to. Square brackets hold non-standard residues; d marks the D form. Peptide text beside a SMILES is read from it. NMeR = CN[C@@H](CCCNC(=N)N)C(=O)O; Tle = CC(C)(C)[C@H](N)C(=O)O

Experiments:
[1] = Displacement of FAM-NT8-13 from rat NTSR1 stably expressed in HEK293F cells incubated for 1 hr under dark condition by mCherry fluorophore based competition binding assay; type: cell-based
[2] = molecular target: Neurotensin receptor type 1 (Homo sapiens, UniProt P30989); assay: Inhibition of NTSR1 (unknown origin)
Chain of Neurotensin receptor type 1 (P30989 whole entry): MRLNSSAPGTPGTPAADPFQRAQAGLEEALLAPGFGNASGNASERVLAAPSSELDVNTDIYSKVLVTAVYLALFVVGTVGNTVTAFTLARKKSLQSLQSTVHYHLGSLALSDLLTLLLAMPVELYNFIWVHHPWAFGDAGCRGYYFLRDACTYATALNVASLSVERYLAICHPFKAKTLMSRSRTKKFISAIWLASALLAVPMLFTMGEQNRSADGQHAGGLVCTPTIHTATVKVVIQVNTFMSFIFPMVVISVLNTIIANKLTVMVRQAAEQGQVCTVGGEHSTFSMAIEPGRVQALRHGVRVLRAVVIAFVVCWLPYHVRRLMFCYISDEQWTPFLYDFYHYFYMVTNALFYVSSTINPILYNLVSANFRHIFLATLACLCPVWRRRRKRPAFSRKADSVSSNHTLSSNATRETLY

SMILES: CC(C)C[C@H](NC(=O)[C@@H](N)C(C)(C)C)C(=O)N[C@@H](CCCNC(=N)N)C(=O)N[C@@H](CCCCN)C(=O)N1CCC[C@H]1C(=O)N[C@@H](Cc1ccc(O)cc1)C(=O)O (H-[Tle]LRKPY-OH)
pKi [1]: < 4

Ki [2]: 0.00537 µM
SMILES: CN[C@@H](CCCNC(=N)N)C(=O)N[C@@H](CCCCN)C(=O)N1CCC[C@H]1C(=O)N[C@@H](Cc1c[nH]c2ccccc12)C(=O)N[C@H](C(=O)N[C@@H](CC(C)C)C(=O)O)C(C)(C)C (H-[NMeR]KPW[Tle]L-OH)

SMILES: CC(C)C[C@@H]1NC(=O)[C@H](C(C)(C)C)NC(=O)[C@H](Cc2ccc(O)cc2)NC(=O)[C@@H]2CCCN2C(=O)[C@H](CCCCN)NC(=O)[C@H](CCCNC(=N)N)NC1=O (cyclo(KPY[Tle]LR))
Ki [2]: 1.07 µM
Ki [1]: 1.48 µM
pKi [1]: < 4

SMILES: CC(C)C[C@H](NC(=O)[C@@H](NC(=O)[C@H](Cc1ccc(O)cc1)NC(=O)[C@@H]1CCCN1C(=O)[C@H](CCCCN)NC(=O)[C@@H](N)CCCNC(=N)N)C(C)(C)C)C(=O)O (H-RKPY[Tle]L-OH)
Ki [1]: 0.0479 µM
pKi [1]: 7.32
